One test concerns the target JNK3 (Homo sapiens, UniProt P53779). Nature of the test: In vitro JNK3 inhibition (Table 1). Format: biochemical. On the procedure: (§1) In vitro assays for the determination of JNK activities are known in the art and exemplary assay formats are described herein.
(§2) IC50 values in Table 1 were determined using the procedures as described in U.S. Pat. No. 8,450,353.

The next test addresses JNK1 (Homo sapiens, UniProt P45983). Nature of the test: In vitro JNK1 inhibition (Table 1). The test is classed as biochemical. On the procedure: as §1, §2
In another test the target is JNK2 (Homo sapiens, UniProt P45984). Nature of the test: In vitro JNK2 inhibition (Table 1). Format: biochemical. As to the method: as §1, §2
Sequence of JNK2 (P45984 whole entry, species assumed): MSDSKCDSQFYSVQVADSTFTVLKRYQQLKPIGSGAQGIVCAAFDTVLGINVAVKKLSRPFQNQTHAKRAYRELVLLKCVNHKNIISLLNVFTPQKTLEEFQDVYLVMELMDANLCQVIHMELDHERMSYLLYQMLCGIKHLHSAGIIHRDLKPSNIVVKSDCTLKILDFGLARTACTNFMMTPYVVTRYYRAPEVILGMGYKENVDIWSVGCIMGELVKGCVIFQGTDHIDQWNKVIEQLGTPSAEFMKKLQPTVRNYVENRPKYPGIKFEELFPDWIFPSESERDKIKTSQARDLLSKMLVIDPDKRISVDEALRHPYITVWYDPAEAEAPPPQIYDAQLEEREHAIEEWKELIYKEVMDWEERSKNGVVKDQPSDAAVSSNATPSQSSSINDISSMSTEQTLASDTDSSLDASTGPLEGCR
The subject of the next test is JNK. Nature of the test: TGF-β1-induced JNK activation in human lung fibroblasts (Western blot). Format: cell-based. Particulars: HFL-1 cells; compound 30 minutes, then TGF-β1 1 ng/ml 30 minutes. As to the method:
(§3) IGP001 and IGP002 are shown to affect TGF-β1-induced MAP kinase activities in human lung fibroblasts. Human fetal lung fibroblasts (HFL-1) (ATCC, Rockville, Md.) are cultured in Ham's F12K medium (American Type Culture Collection) supplemented with 50 U/ml penicillin G sodium, 50 μg/ml streptonycin sulfate (GIBCO BRL, Life Technologies, Inc., Rockville, Md.) and 10% fetal bovine serum (FBS; Equitech-Bio. Inc., Ingram, Tex.) and maintained in humidified 5% CO2 at 37° C. After reaching confluence, the serum content of the medium is reduced to 0.4% FBS for 24 h. The cells are then stimulated with 1 ng/ml TGF-β1 to produce CTGF.
To test the ability of IGP001 and IGP002 to suppress activation of JNK, HFL-1 cells are cultured with 0.1% DMSO (control vehicle), IGP001 or IGP002 at a concentration of […] for 30 minutes, followed by stimulation with TGF-β1 (1 ng/ml) for 30 minutes. Activities of JNK, p38 MAP kinase and ERK are determined by Western blotting whole cell lysates using antibodies specific for phosphorylated, activated forms of JNK, p38 MAP kinase, and ERK. […]
Phosphorylated JNK protein levels are quantified by densitometry. The optical density of the p46 and p54 phosphorylated protein band are corrected for total p46 and p54 protein, respectively, and results are expressed as ratio (%) of control value (TGF-β1-stimulated HFL-1 cells).
For orientation: Immunoblotting shows a protein as a band on a membrane.

The subject of a further test is ERK. Nature of the test: TGF-β1-induced ERK activation in human lung fibroblasts (Western blot). The test is classed as cell-based. The conditions noted are these: HFL-1 cells; TGF-β1 1 ng/ml. On the procedure:
as §3
To test the ability of IGP001 and IGP002 to suppress activation of JNK, HFL-1 cells are cultured with 0.1% DMSO (control vehicle), IGP001 or IGP002 at a concentration of […] for 30 minutes, followed by stimulation with TGF-β1 (1 ng/ml) for 30 minutes. Activities of JNK, p38 MAP kinase and ERK are determined by Western blotting whole cell lysates using antibodies specific for phosphorylated, activated forms of JNK, p38 MAP kinase, and ERK. Two identical experiments independently performed yielded similar results.

In a further test the test system is CTGF mRNA. Nature of the test: TGF-β1-induced CTGF mRNA expression in HFL-1 cells. The test is classed as cell-based, human. The conditions noted are these: compound 30 min before TGF-β1 1 ng/ml for 4 hours. As to the method:
HFL-1 cells are created as described above in Example 3. HFL-1 cells are cultured with 0.1% DMSO (control vehicle), IGP001 or IGP002 for 30 min before stimulation with TGF-β1 (1 ng/ml) for 4 hours. Total RNA is extracted and hybridized with human CTGF probes, and messenger RNA levels are quantified by densitometry and optical density of CTGF mRNA band was corrected for G3PDH, and results are expressed as ratio (%) of control value (TGF-β1-stimulated HFL-1 cells).

Test [1] deals with bleomycin-induced lung fibrosis. Nature of the test: Mouse bleomycin-induced lung fibrosis model, preventative study. The test is classed as in vivo. The conditions noted are these: 10 mg/kg and 30 mg/kg b.i.d. oral gavage starting prior to bleomycin; 14 days. On the procedure: Age and gender-matched wild type mice on the C57BL/6 background were utilized for this study, which is outlined in Table 1: Mice are housed in a sterile barrier facility at the Yale University School of Medicine and all proposed procedures are approved on existing mouse protocols. Mice were given a single inhaled dose of 1.25 Units/kg pharmacologic grade bleomycin (Teva Pharmaceuticals, Israel) in a volume of 50 μl. Mice received twice daily administered IGP001, via oral gavage, on a b.i.d. schedule starting prior to bleomycin treatment in this preventative study. Mice were sacrificed at 14 days following the administration of bleomycin and assessed as appropriate for the outcomes shown in Table 2: Briefly, lung inflammation was assessed by Bronchoalveolar lavage cell counts. Total soluble lung collagen will be quantified using Sircol Assay (Biocolour, Ireland). Formalin fixed, paraffin embedded mouse lung sections were stained with hematoxylin and eosin to assess gross morphology, morphometry, and Ashcroft scores and with Masson's trichrome stains to visualize collagen deposition.

Test [2] has the same test system. Nature of the test: Mouse bleomycin-induced lung fibrosis model, therapeutic study. The test is classed as in vivo. Particulars: 30 mg/kg b.i.d. oral gavage starting 7 days after bleomycin; male and female mice; 14 days. As to the method:
Age and gender-matched wild type mice on the C57BL/6 background were utilized for this study, as outlined in Table 3: Mice were housed in a sterile barrier facility and given a single inhaled dose of 1.25 Units/kg pharmacologic grade bleomycin (Teva Pharmaceuticals, Israel) in a volume of 50 μl. Mice received twice daily administered IGP001, via oral gavage, on a b.i.d. schedule starting 7 days after bleomycin treatment in this therapeutic study. Mice were sacrificed at 14 days following the administration of bleomycin and assessed as appropriate for deposited collagen in the lungs using Masson's Trichrome stain.

Test [3] relates to myocardial ischemia-reperfusion. Nature of the test: Rat model of cardiac ischemia and remodeling. The test is classed as in vivo. As to the method: To study the effects of JNK inhibitors on prevention and/or progression of cardiac infarct size following myocardial infarction, a rat model of cardiac ischemia and remodeling was used. Briefly, adult male Sprague-Dawley rats (Charles River labs) are subjected to 45 minutes normothermic ischemia (left coronary artery occlusion) followed by 48 hours reperfusion. In rodents, myocardial infarct size stabilizes by 48 hour post-ischemia following which events relating to left ventricular (LV) dilatation and remodeling begin. At the onset of reperfusion, animals receive vehicle, IGP001 or IGP002 (10 mg/kg/day) p.o. Infarct size as a percentage of region-at-risk (RAR) is determined using standard Evans Blue and tetrazolium chloride staining of the hearts. Rats are next tested for ischemic ventricular remodeling and cardiac function following treatment with IGP001 and IGP002. Rats subjected to 45 minutes normothermic myocardial ischemia receive vehicle, IGP001 or IGP002 p.o. (10 mg/kg/day, p.o.; twice/day for remainder of study) at onset of reperfusion. Following a 48 hour treatment period, animals are subjected to echocardiography (Philips Envisor C Ultrasound) at week 1 reperfusion and sacrificed at week 8 reperfusion. Myocardial ischemia-reperfusion is associated with the hall mark indices of LV remodeling: increased end-diastolic volume or LV dilatation; increased end-systolic volume (i.e. reduced cardiac output); reduced fractional shortening and ejection fraction. […] To better mimic the clinical scenario of delayed start of treatment, rats are administered with vehicle, IGP001 or IGP002 (10 mg/kg/day) p.o. 3 hours after the onset of reperfusion following a 45 minute myocardial ischemia. Animals are sacrificed at 48 hours reperfusion.

[4] abbreviates: 10 mg/kg/day p.o. for 48 hours following myocardial ischemia, week 1.

Each structure is given as a SMILES string.

Sequence of JNK1 (P45983 whole entry, species assumed): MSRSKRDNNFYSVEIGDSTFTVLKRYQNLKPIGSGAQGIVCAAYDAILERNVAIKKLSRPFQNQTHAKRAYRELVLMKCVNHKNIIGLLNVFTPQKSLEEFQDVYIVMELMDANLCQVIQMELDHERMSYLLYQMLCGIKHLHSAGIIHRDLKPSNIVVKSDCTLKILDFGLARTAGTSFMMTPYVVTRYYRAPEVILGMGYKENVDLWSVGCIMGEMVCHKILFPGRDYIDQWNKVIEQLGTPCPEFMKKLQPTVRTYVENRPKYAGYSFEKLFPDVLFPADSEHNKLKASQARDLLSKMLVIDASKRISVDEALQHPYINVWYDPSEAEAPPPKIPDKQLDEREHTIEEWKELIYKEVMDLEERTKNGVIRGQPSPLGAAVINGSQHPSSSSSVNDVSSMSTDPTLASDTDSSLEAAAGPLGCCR
Sequence of JNK3 (P53779 whole entry, species assumed): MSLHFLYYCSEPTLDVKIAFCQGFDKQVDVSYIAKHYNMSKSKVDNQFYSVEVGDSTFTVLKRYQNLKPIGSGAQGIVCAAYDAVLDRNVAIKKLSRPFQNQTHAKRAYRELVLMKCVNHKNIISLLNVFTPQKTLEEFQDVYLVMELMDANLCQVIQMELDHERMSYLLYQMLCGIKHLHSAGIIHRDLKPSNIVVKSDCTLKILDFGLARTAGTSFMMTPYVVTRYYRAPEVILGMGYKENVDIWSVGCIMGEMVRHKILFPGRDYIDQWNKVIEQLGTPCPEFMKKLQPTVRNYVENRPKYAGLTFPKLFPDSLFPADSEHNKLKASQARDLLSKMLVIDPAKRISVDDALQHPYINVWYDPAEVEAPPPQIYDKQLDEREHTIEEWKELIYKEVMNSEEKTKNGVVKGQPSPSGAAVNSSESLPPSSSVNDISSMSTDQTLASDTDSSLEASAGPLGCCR

A word on the IC50: it is the concentration that gives 50% inhibition. Higher therefore signals weaker potency in that assay. Turning to `O=C(Cn1c(=O)ccc2cc(C(F)(F)F)ccc21)Nc1scc(Br)c1-c1nnc[nH]1` [IGP001, N-(4-bromo-3-(1H-1,2,4-triazol-5-yl)thiophen-2-yl)-2-(2-oxo-6-(trifluoromethyl)quinolin-1(2H)-yl)acetamide], the IC50 on JNK3, against JNK1 and against JNK2 was < 100 nM throughout. Moreover, in the test on JNK, the “TGF-β1-induced JNK phosphorylation” value is “suppress TGF-β1-induced JNK phosphorylation in a dose-dependent fashion”. The “TGF-β1-induced ERK activation” value in the test with ERK is reported as “but not p38 MAP Kinase or ERK Activation”. In addition, the “CTGF mRNA expression” value with CTGF mRNA is given as “suppressed CTGF mRNA expression by HFL-1 cells stimulated with TGF-β1 in a dose-dependent fashion”. Moreover, the “deposited collagen (Masson's trichrome stain)” value in test [1] is “reduced deposited collagen”. Also, the “deposited collagen in the lungs (Masson's Trichrome stain)” value in test [2] is recorded as “significantly reduced deposited collagen”. The “size of infarction, delayed start of treatment” value in test [3] (10 mg/kg/day p.o. 3 hours after the onset of reperfusion, 48 hours reperfusion) is “statistically significant decrease in the size of infarction”. Also, in test [3] (10 mg/kg/day p.o. at the onset of reperfusion, 48 hours reperfusion), the “postischemic myocardial infarct size” value is given as “significant reduction in postischemic myocardial infarct size”. The “LV remodeling (echocardiography)” value in test [3] (setting [4]) is given as “reduces adverse LV remodeling”. The “cardiac function (echocardiography)” value in test [3] (setting [4]) was “improved cardiac function”.

For the origin of these results see US20190231751A1, “TREATMENT OF FIBROTIC DISORDERS WITH JUN N-TERMINAL KINASE INHIBITORS” (Imago Pharmaceuticals, Inc., priority 2016, published 2019).
